Drawing on ChEMBL document CHEMBL3259571, “Diacylglycerol lactones targeting the structural features that distinguish the atypical C1 domains of protein kinase C ζ and ι from typical C1 domains” (J Med Chem, 2014), this text covers Selectivity ratio, Ki and Kd for one compound.

The species entered for assay [1] is Mus musculus. The assay can be described thus: Selectivity ratio of Ki for GST-tagged mouse PKC-delta C1B domain S10R mutant to Kd for GST-tagged full-length mouse PKC-delta C1B domain.
The species entered for assay [2] is Mus musculus. Kind of assay: Selectivity ratio of Kd for GST-tagged full-length mouse PKC-delta C1B domain to Ki for GST-tagged mouse PKC-delta C1B domain P11R mutant.
Assay [3] in a line: Displacement of [20-3H]PDBu from GST-tagged mouse PKC-delta C1B domain N7R/P11R mutant expressed in Escherichia coli after 2 to 30 mins by polyethylene glycol precipitation assay in presence of phosphatidylserine.
A short description of assay [4]: Displacement of [20-3H]PDBu from GST-tagged mouse PKC-delta C1B domain N7R mutant expressed in Escherichia coli after 2 to 30 mins by polyethylene glycol precipitation assay in presence of phosphatidylserine.
For assay [5], the species on record is Mus musculus. The assay can be described thus: Selectivity ratio of Ki for GST-tagged mouse PKC-delta C1B domain N7R/P11R mutant to Kd for GST-tagged full-length mouse PKC-delta C1B domain.
The nature of assay [6]: Displacement of [20-3H]PDBu from GST-tagged mouse PKC-delta C1B domain S10R mutant expressed in Escherichia coli after 2 to 30 mins by polyethylene glycol precipitation assay in presence of phosphatidylserine.
Assay [7] in a line: Displacement of [20-3H]PDBu from GST-tagged mouse PKC-delta C1B domain L20R mutant expressed in Escherichia coli after 2 to 30 mins by polyethylene glycol precipitation assay in presence of phosphatidylserine.
Assay [8] is described as follows: Displacement of [20-3H]PDBu from GST-tagged mouse PKC-delta C1B domain P11R mutant expressed in Escherichia coli after 2 to 30 mins by polyethylene glycol precipitation assay in presence of phosphatidylserine.
The target in assay [9] is Protein kinase C delta type (Mus musculus, UniProt P28867). The assay can be described thus: Displacement of [20-3H]PDBu from GST-tagged full-length mouse PKC-delta C1B domain expressed in Escherichia coli after 2 to 30 mins by polyethylene glycol precipitation assay in presence of phosphatidylserine.
Chain of Protein kinase C delta type (P28867 whole entry, the tested form may be a part): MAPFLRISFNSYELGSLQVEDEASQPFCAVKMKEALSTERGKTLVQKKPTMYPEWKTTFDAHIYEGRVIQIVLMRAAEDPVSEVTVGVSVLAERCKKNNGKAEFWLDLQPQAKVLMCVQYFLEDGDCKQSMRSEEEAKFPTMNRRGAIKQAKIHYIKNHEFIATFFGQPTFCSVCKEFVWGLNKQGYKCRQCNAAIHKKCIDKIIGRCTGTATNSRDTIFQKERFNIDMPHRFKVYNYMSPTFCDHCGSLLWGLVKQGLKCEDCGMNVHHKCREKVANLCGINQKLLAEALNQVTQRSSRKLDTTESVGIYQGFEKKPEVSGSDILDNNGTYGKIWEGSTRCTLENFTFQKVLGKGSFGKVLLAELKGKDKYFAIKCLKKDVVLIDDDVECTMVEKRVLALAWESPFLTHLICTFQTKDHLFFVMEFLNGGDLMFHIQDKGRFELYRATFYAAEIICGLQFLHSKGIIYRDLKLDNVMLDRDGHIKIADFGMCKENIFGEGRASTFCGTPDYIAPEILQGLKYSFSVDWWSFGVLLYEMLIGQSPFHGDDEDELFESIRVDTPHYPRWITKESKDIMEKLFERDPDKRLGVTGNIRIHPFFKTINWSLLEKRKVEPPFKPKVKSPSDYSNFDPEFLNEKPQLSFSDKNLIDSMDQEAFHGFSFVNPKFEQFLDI
The species entered for assay [10] is Mus musculus. Kind of assay: Selectivity ratio of Ki for GST-tagged mouse PKC-delta C1B domain N7R/L20R mutant to Kd for GST-tagged full-length mouse PKC-delta C1B domain.
The species entered for assay [11] is Mus musculus. Kind of assay: Selectivity ratio of Ki for GST-tagged mouse PKC-delta C1B domain L20R mutant to Kd for GST-tagged full-length mouse PKC-delta C1B domain.
For assay [12], the species on record is Mus musculus. Kind of assay: Selectivity ratio of Ki for GST-tagged mouse PKC-delta C1B domain P11R mutant to Kd for GST-tagged full-length mouse PKC-delta C1B domain.
Assay [13] can be described thus: Displacement of [20-3H]PDBu from GST-tagged mouse PKC-delta C1B domain N7R/L20R mutant expressed in Escherichia coli after 2 to 30 mins by polyethylene glycol precipitation assay in presence of phosphatidylserine.
Assay [14] is filed under the species Mus musculus. Kind of assay: Selectivity ratio of Ki for GST-tagged mouse PKC-delta C1B domain N7R mutant to Kd for GST-tagged full-length mouse PKC-delta C1B domain.

The Ki is the dissociation constant of the complex between target and ligand, obtained from inhibition or displacement. As a reminder, the Kd is the free concentration of one partner at which half of the binding sites on the other are occupied at equilibrium, for simple one-to-one binding. As to `CC(C)C(CC(=O)OCC1(CO)C/C(=C\c2cccc(C(=O)O)c2)C(=O)O1)C(C)C` (centres undefined), the Selectivity ratio in assay [1] was 0.4; in assay [2], 5; in assay [5], 2.47; in assay [10] it was 21.8; in assay [11] it was 1.34; in [12] it was 0.2. For the same compound, the Selectivity ratio in assay [14] is 0.3. Also, the Ki in assay [3] is 5.19 µM; in assay [4] it was 0.64 µM; in [6], 0.84 µM; in assay [7] it was 2.82 µM; in assay [8] it was 0.421 µM; in assay [13], 45.9 µM. For the same compound, the Kd in [9] worked out at 2.1 µM.
